This passage reports melting point and IC50 results from patent publication US9629822B2, “Flavonoid based antiviral targets” (UNIVERSITY OF CENTRAL FLORIDA RESEARCH FOUNDATION, INC., priority 2012, dated 2017).

Read-outs that look alike come from different tables or passages of the source. Some results are limits rather than exact numbers.

Series [1] deals with CHO cells. As to the kind of experiment: CHO cell toxicity, MTS assay, 48 h. It is filed as cell-based, Chinese hamster. Conditions: Cricetulus griseus, CHO. Summed up:
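CHO cells plated at 10,000 cells/mL, incubated overnight, then exposed to drug (final DMSO <1%) for 48 h at 37 °C, 5% CO2, in triplicate. MTS added for a further 4 h; absorbance read at 490 nm. IC50 taken from relative A490 versus drug concentration.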
For orientation: Formazan colour is commonly taken as a measure of viable cells.

Where [2] appears, read: 37° C., MTS reagent, read-out: CHO 48 h IC50 value.

As usually defined, the melting point is the temperature of the solid-liquid transition. Broadly, the IC50 is the concentration at which inhibition is half-maximal. `COc1ccc(Br)cc1-c1oc2ccccc2c(=O)c1O` [Compound 9b, 2-(5-Bromo-2-methoxyphenyl)-3-hydroxy-4H-chromen-4-one] returned a melting point of 159 to 161 °C. Also, in series [1] (setting [2]), the IC50 is 88.5 ± 10.1 µM.
In the case of `COc1ccc(Br)cc1/C=C/C(=O)c1c(O)cccc1OCc1ccccc1` [Compound 8l, (E)-1-(2-(Benzyloxy)-6-hydroxyphenyl)-3-(5-bromo-2-methoxyphenyl)prop-2-en-1-one], the IC50 in series [1] (setting [2]) worked out at 8.1 ± 1 µM.
Consider `COc1ccc(Cl)cc1-c1oc2ccccc2c(=O)c1O` [Compound 9h, 2-(5-chloro-2-methoxyphenyl)-3-hydroxy-4H-chromen-4-one], for which the melting point was 160 to 167 °C. In series [1] (setting [2]), the IC50 is 25 ± 2.2 µM.
In the case of `COc1ccccc1-c1cc(=O)c2c(O)cccc2o1` [Compound 12a, 5-Hydroxy-2-(2-methoxyphenyl)-4H-chromen-4-one], the IC50 in series [1] (read-out: CHO 48 h IC50 value (μM)) was above 100 µM.
`COc1ccc(Br)cc1/C=C/C(=O)c1ccc2ccccc2c1O` [Compound 8m, (E)-3-(5-bromo-2-methoxyphenyl)-1-(1-hydroxynaphthalen-2-yl)prop-2-en-1-one]: the melting point lay in the range of 117 to 127 °C. Moreover, the 50% inhibitory concentration (IC50) in series [1] (setting [2]) is 15.6 ± 1 µM.
For `COc1ccc(Br)cc1-c1cc(=O)c2c(O)cccc2o1` [Compound 12b, 2-(5-Bromo-2-methoxyphenyl)-5-hydroxy-4H-chromen-4-one], in that order: 175 to 180 °C and 75.2 ± 8.7 µM.
Regarding `COc1ccccc1-c1oc2ccccc2c(=O)c1O` [Compound 9a, 3-Hydroxy-2-(2-methoxyphenyl)-4H-chromen-4-one], in series [1] (setting [2]), the IC50 was above 100 µM.
